Activity calls are given as the source filed them. Cut-off read from the data, not from the text of the source, for most assays here: actives have a measured IC50 and inactives only a lower limit.
What was measured:
[1] = molecular target: T1, Sentrin-specific protease 8 (Homo sapiens, UniProt Q96LD8); assay: SENP8 protease inhibitors, SAR follow-up, biochemical, luminescence (AID 504501); type: functional
T1 sequence (Q96LD8 whole entry): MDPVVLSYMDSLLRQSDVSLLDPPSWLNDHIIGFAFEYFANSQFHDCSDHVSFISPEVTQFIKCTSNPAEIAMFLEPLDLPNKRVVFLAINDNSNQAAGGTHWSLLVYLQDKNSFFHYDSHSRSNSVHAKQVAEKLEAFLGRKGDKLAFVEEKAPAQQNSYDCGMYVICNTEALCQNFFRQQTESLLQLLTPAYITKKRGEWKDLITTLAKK

Caspase-3 [2] = molecular target: T2, Caspase-3 (Homo sapiens, UniProt P42574); assay: caspase-3 inhibitors as off-family protease, SAR follow-up, selectivity assay for SENP protease inhibitor project, biochemical, luminescence, set 2 (AID 588599); type: functional
T2 sequence (P42574 whole entry): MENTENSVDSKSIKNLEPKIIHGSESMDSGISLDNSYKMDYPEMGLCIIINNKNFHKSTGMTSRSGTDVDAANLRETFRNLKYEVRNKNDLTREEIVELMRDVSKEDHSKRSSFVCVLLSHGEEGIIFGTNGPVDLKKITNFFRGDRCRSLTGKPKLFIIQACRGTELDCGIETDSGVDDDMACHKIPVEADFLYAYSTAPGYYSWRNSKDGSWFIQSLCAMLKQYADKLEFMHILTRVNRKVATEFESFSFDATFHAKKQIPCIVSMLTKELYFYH

[3] = molecular target: T1, Sentrin-specific protease 8; assay: SENP8 protease inhibitors, SAR follow-up, biochemical, luminescence, set 2 (AID 588601); type: functional
Caspase-3 [4] = molecular target: T2, Caspase-3; assay: SAR Analysis of small molecule inhibitors of Sentrin-specific proteases (SENPs) using a Caspase-3 Selectivity assay. [Related pubchem assays (depositor defined):AID2540, AID2599, AID434973, AID489001]; type: functional
[5] = molecular target: T3, Sentrin-specific protease 6 (Homo sapiens, UniProt Q9GZR1); assay: SAR Analysis of small molecule inhibitors of Sentrin-specific protease 6 (SENP6) using a Luminescent assay. [Related pubchem assays (depositor defined):AID2582, AID2599]; type: functional
T3 sequence (Q9GZR1 whole entry): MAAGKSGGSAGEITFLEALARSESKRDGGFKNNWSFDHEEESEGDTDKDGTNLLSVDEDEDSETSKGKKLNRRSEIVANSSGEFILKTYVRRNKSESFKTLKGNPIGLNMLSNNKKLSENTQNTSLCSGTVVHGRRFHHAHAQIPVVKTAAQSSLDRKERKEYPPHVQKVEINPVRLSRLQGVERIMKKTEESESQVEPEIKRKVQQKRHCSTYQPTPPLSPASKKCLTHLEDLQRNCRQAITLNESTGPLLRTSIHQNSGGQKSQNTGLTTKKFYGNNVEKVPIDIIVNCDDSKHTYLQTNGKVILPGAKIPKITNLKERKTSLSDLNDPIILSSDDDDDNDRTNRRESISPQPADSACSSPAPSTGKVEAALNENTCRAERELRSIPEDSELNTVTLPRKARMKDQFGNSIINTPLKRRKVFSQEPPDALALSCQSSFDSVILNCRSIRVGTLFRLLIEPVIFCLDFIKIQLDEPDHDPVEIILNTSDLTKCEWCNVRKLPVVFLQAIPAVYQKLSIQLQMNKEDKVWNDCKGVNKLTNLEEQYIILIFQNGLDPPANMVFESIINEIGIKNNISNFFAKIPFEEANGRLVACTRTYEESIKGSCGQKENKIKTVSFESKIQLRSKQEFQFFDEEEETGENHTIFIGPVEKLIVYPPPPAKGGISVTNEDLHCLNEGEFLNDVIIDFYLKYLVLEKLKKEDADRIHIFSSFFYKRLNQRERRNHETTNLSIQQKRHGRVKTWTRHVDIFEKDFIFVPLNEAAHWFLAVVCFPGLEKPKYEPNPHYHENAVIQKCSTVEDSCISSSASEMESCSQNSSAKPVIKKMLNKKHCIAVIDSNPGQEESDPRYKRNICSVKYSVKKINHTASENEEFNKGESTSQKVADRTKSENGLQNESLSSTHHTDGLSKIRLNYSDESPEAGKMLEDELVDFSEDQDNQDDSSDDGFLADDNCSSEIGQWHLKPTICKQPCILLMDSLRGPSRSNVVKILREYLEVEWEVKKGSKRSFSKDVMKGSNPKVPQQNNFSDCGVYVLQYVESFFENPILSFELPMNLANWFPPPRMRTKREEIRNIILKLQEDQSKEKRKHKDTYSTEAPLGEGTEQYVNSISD

Cysteine protease ATG4B = molecular target: T4, Cysteine protease ATG4B (Homo sapiens, UniProt Q9Y4P1); type: functional;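 note: Fluorescence-based dose-response confirmation assay measuring inhibition of ATG4B activity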
T4 sequence (Q9Y4P1 whole entry): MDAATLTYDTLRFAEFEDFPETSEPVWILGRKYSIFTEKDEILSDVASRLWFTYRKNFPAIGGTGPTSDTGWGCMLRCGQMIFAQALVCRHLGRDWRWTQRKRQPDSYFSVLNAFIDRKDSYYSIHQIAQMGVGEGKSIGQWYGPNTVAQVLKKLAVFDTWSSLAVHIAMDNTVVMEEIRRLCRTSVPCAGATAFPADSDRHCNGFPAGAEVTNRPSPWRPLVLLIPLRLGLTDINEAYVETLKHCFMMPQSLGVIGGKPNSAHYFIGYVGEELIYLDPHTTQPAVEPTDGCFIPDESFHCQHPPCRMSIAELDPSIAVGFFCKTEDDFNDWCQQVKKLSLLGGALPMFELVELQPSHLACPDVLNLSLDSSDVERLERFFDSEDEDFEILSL

Phospholipase A2 = Phospholipase A2 (Homo sapiens, UniProt P04054); type: functional;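 note: confirmatory dose-response counterscreen on phospholipase A2, testing hits that came from an ultra-high-throughput screen for ATG4B inhibitors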
CHO = assay: cytotoxicity in TLR9-MyD88 CHO cells, dose response, cytotoxicity control for TLR9-MyD88 binding inhibitor project, cell-based, luminescence (AID 588339); type: functional, hamster; conditions: Cricetulus griseus;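 note: CHO cells stably coexpressing TLR9 and MyD88 fusions from primary screen; compound exposure lasted 48 hours before viability readout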
Beta Lactamase = Beta Lactamase (Pseudomonas aeruginosa, UniProt Q932Y6); assay: beta-lactamase reporter inhibitor potency, dose response, artefact control for TLR9-MyD88 binding inhibitor project, BLA reporter cells, FRET fluorescence (AID 588341); type: cell-based;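 note: cell based assay in CHO-K1 cells stably expressing beta-lactamase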
[6] = molecular target: T5, Microphthalmia-associated transcription factor (Homo sapiens, UniProt O75030); assay: TRPM1 promoter luciferase signal decrease, dose response, MITF inhibitor project, cell-based, SK-MEL-5, cherry-picked, set 3 (AID 493073); type: functional
T5 sequence (O75030 whole entry): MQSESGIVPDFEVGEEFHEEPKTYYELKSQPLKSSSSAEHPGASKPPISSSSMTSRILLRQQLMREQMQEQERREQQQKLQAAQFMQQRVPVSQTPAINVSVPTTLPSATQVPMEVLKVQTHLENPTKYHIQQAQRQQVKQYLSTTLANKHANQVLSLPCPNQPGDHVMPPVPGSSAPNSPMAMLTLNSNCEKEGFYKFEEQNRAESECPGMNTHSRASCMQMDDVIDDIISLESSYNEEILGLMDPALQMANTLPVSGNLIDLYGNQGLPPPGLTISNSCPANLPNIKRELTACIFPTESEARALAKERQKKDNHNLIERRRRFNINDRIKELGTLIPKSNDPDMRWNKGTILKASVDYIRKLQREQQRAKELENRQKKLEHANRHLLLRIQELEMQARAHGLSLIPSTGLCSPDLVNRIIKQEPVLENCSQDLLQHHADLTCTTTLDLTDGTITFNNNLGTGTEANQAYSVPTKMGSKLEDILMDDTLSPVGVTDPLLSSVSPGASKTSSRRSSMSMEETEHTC

A-375 = assay: A375 melanoma cell viability reduction, dose response, counter-screen for MITF modulator project, cherry-pick samples, set 2 (AID 540335); type: functional, cell-based; conditions: Homo sapiens
[7] = molecular target: Voltage-gated inwardly rectifying potassium channel KCNH2 (Homo sapiens, UniProt Q12809); conditions: Potency;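 note: confirmatory quantitative high-throughput screen measuring inhibition of hERG channel activity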
[8] = molecular target: T6, Sentrin-specific protease 7 (Homo sapiens, UniProt Q9BQF6); assay: SENP7 protease inhibitors, SAR follow-up, biochemical, luminescence (AID 504497); type: functional
T6 sequence (Q9BQF6 whole entry): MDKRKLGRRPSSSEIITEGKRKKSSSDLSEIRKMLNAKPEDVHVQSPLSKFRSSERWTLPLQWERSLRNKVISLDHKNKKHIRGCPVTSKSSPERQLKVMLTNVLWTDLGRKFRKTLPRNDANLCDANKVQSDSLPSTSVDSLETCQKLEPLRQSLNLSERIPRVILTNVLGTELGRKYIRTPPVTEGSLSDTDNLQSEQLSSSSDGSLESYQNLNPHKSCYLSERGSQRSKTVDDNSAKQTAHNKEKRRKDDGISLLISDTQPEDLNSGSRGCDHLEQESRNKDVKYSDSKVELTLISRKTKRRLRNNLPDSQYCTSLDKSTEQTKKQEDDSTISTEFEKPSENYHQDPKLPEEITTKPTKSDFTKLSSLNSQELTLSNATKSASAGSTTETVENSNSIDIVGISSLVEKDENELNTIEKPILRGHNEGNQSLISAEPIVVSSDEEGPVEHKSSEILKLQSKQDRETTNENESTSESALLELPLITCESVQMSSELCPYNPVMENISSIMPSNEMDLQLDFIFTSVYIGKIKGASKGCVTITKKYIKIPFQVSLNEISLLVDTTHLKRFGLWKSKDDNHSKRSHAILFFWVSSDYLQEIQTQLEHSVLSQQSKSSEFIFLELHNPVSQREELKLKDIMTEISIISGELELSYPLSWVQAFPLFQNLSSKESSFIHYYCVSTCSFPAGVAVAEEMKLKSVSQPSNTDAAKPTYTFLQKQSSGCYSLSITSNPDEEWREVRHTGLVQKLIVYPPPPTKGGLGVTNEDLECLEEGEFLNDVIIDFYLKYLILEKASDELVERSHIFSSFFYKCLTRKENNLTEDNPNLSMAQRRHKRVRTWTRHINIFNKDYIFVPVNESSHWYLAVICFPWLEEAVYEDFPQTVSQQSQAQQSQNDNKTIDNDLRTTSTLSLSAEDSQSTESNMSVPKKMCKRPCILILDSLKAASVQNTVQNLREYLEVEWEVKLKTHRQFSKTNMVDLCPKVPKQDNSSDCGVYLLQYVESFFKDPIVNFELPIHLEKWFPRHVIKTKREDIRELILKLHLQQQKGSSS

HeLa = assay: HeLa cell cytotoxicity, dose response, cytotoxicity control for MITF activator project, CellTiter-Glo luminescence, cherry-pick samples (AID 540259); type: functional, cell-based; conditions: Homo sapiens
Caspase-3 [9] = molecular target: T2, Caspase-3; type: functional
[10] = molecular target: T6, Sentrin-specific protease 7; type: functional
[11] = molecular target: T3, Sentrin-specific protease 6; type: functional
[12] = molecular target: T1, Sentrin-specific protease 8; type: functional

Chain of Voltage-gated inwardly rectifying potassium channel KCNH2 (Q12809 whole entry): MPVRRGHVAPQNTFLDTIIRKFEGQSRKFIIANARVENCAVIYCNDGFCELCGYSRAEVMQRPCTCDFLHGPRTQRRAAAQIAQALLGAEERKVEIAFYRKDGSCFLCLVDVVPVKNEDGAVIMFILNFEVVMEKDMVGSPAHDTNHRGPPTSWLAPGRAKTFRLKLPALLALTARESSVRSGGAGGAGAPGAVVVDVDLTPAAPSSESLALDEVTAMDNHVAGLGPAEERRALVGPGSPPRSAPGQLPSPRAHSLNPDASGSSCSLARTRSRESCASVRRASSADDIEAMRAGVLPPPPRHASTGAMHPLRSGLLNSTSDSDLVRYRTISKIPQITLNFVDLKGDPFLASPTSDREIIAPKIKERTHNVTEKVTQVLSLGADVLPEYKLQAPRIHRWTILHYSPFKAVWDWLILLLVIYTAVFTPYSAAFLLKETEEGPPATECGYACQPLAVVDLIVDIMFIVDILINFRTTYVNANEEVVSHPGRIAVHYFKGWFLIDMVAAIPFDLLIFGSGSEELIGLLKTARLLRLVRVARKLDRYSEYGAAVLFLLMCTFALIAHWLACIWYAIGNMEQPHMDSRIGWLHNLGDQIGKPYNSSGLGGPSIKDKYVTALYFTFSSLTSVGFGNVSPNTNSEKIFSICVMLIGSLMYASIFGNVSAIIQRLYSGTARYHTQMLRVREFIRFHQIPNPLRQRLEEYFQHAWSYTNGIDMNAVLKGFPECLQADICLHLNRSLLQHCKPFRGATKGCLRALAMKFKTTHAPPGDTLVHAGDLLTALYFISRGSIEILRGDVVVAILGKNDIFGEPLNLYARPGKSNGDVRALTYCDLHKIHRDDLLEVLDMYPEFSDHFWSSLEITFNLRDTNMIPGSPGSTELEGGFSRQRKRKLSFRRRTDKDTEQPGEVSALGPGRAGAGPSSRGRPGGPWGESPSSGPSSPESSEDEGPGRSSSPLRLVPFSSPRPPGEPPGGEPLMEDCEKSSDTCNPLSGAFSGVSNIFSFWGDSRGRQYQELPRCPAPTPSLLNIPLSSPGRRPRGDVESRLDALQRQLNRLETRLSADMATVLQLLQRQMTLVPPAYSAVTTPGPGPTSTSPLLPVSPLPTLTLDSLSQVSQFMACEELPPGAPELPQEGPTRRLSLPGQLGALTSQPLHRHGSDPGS
Chain of Phospholipase A2 (P04054 whole entry, the tested form may be a part): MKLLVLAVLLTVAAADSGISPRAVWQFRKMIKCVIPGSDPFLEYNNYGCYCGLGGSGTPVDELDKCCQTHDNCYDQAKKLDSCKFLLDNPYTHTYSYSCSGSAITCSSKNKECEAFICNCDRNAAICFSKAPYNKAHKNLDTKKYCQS
Chain of Beta Lactamase (Q932Y6 whole entry): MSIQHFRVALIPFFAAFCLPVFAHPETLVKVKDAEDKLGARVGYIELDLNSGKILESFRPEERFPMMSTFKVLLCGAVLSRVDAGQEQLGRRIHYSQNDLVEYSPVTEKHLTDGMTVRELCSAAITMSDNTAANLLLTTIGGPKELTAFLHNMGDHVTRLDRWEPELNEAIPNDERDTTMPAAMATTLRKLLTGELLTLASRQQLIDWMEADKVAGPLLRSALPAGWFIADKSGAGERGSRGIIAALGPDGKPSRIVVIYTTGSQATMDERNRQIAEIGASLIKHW

Cc1ccc(C(=O)Nc2nc3ccc(Cl)cc3s2)o1
IC50 [1]: 3 µM (active)
IC50 (Caspase-3 [2]): 2.53 µM (active)
IC50 [3]: 1.65 µM (active)
IC50 (Caspase-3 [4]): 11 µM (active)
IC50 [5]: 25 µM (active)

CC(C)c1ccc(NC2CCCN(C(=O)c3[nH]nc4c3CCC4)C2)cc1 (centres undefined)
IC50 (Cysteine protease ATG4B): 11.8 µM (active)
IC50 (Phospholipase A2): 5.99 µM (active)

COc1ccc(/C=N/Nc2ccc([N+](=O)[O-])cc2)cc1O
IC50 (CHO): 45.1 µM (inactive)
IC50 (Beta Lactamase): 10.7 µM (inactive)

CCCCn1c(=N)n(CCOc2ccc(C)cc2)c2ccccc21
AC50 [6]: 11.3 µM (active)
AC50 (A-375): 18.3 µM (active)

COc1cc(CC(C)N)c(OC)cc1I (centres undefined)
AC50 [7]: 15.8 µM (inconclusive)

N=C(N)SCCc1cccc(CCSC(=N)N)c1
AC50 [7]: 20 µM (inconclusive)

Nc1ccccc1-c1noc(/C=C/c2ccccc2Cl)n1
IC50 [1]: > 99 µM (inactive)
IC50 (Caspase-3 [4]): > 99 µM (inactive)
IC50 [5]: > 99 µM (inactive)
IC50 [8]: 71.3 µM (active)

COc1cccc(NC(=O)Nc2ccc3c(c2)nnn3C)c1
AC50 (HeLa): > 350 µM (inactive)

O=C(Nc1ccc(Br)cc1)c1ccc2c(c1)OCO2
IC50 (Caspase-3 [9]): 22.1 µM (active)
IC50 [10]: 3.75 µM (active)
IC50 [11]: > 100 µM (inactive)
IC50 [12]: > 100 µM (inactive)
IC50 [1]: > 99 µM (inactive)
IC50 (Caspase-3 [4]): 8.29 µM (active)
IC50 [5]: > 99 µM (inactive)
IC50 [8]: 4.45 µM (active)

CC(c1ccccc1)c1nnc(NC(=O)Nc2ccccc2F)s1 (centres undefined)
AC50 (HeLa): 52.5 µM (active)

Cc1ccccc1NC(=O)Cc1nc(COC(=O)c2ccc(S(C)(=O)=O)c([N+](=O)[O-])c2)cs1
AC50 [6]: 12.8 µM (active)
AC50 (A-375): 28.2 µM (active)
